Values of other authors in US11666623B2, “Tetramaleimide linkers and use thereof” (NewBio Therapeutics, Inc., priority 2017, dated 2023).

Test system: human carcinoma lines
Settings: cited from earlier work

## COc1cccc2c1C(=O)c1c(O)c3c(c(O)c1C2=O)C[C@@](O)(C(=O)CO)C[C@@H]3O[C@H]1C[C@H](N)[C@H](O)[C@H](C)O1 [doxorubicin, Doxorubicin]
  IC50: 100 to 200 nM
